Molecular target: Factor D (Homo sapiens (Human), UniProt P00746)
Assay: Factor D esterolytic assay (Z-Lys-SBzl substrate, DTNB, 405 nm)
Type: biochemical
Details: Z-Lys-SBzl 1.29 mM, pH 7.5, 10% DMSO, tested a minimum of three times, read-out: Measured Ki (IC50) Value for Compounds: IC50
Experimental: The IC50 value of a compound (i.e., the concentration of the compound that inhibits 50% of the enzymatic activity) was calculated according to the procedure reported in U.S. Pat. No. 6,653,340 B1, e.g., column 74 (incorporated by reference).
Specifically, the compounds were dissolved in a stock solution of DMSO at 10.0 or 100 mM. A portion of this stock solution was added to assay buffer in a final volume of 50 μL. Controls included buffer alone and enzyme solutions to which DMSO was added. Substrate was added to the reaction wells immediately or after incubation at room temperature. The reaction rates were measured spectrophotometrically by the generation of product at 405 nm for 600 sec. Background absorbance at 690 nm was measured and subtracted from the absorbance at 405 nm for each well.
The reaction rate for enzyme alone was compared to the rate of enzyme in the presence of inhibitor and the percent inhibition was calculated as shown below: Percent Inhibition=[Rate without inhibitor−Rate with inhibitor)/(Rate without inhibitor)]×100 Factor D Esterolytic Assay:
An established esterolytic assay for the measurement of Factor D activity and inhibition of Factor D activity was used (Kam, C. M.; McRae, B. J.; Harper, J. W.; Niemann, M. A.; Volanakis, J. E.; Powers, J. C. Human complement proteins D, C2, and B Active site mapping with peptide thioester substrates. J Biol. Chem. 1987, 262, 3444-3451). For this assay Z-Lys-SBzl, 1.29 mM (Kim, S.; Narayana, S. V. L; Volanakis, J. E. Mutational analysis of the substrate binding site of human complement Factor D. Biochemistry. 1994, 33, 14393-14399.) was used as the substrate for Factor D ([…]). Hydrolysis of this compound by Factor D liberated a free sulfhydryl group which is then reacted with 5,5′-dithiobis(2nitrobenzoic acid) producing an intense yellow color (Habeeb, A. F. S. A. Reaction of protein sulfhydryl groups with Ellman's Reagent. Methods in Enzymol. 1976, 25, 457-464). The assays were performed in 96 well microtiter plates and rates of hydrolysis were monitored at 405 nm on a Biotek Synergy H1 plate reader. Hydrolysis rates were reported as change in mOD/min. The assay was conducted in 100 mM HEPES, 500 mM NaCl, pH 7.5 containing 10% DMSO in a final volume of 50 μL per well.
An IC50, a compound concentration which inhibits 50% of the enzymatic activity, was calculated. Compounds in the examples were tested a minimum of three times.

Sequence of Factor D (P00746 26-253): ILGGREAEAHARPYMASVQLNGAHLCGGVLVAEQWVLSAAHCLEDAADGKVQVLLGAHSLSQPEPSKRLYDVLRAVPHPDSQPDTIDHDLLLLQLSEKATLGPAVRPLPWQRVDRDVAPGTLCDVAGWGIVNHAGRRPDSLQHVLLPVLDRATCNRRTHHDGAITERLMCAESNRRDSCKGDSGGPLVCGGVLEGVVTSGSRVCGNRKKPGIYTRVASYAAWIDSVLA

Row | SMILES | IC50 [nM]
1 | COc1ccc(CC(=O)O)c(NC(=O)c2nc(-c3cccc(CN)c3)nn3cccc23)c1 [Compound 42d, 2-(2-(2-(3-(aminomethyl)phenyl)pyrrolo[2,1-f][1,2,4]triazine-4-carboxamido)-4-methoxyphenyl)acetic acid] | < 1000
2 | NCc1cccc(-c2cc(COc3ccccc3CC(=O)O)cc3c2OCC3)c1 [Compound 43d, 2-(2-((7-(3-(aminomethyl)phenyl)-2,3-dihydrobenzofuran-5-yl)methoxy)phenyl)acetic acid] | < 1000
3 | NCc1cccc(-c2cc(C(=O)Nc3ccccc3CC(=O)O)cc3c2ccn3CC2CC2)c1 [Compound 44c, 2-(2-(4-(3-(aminomethyl)phenyl)-1-(cyclopropylmethyl)-1H-indole-6-carboxamido)phenyl)acetic acid] | < 1000
4 | Cn1ccc2c(-c3cccc(CN)c3)cc(C(=O)Nc3ccccc3CC(=O)O)cc21 [Compound 45e, 2-(2-(4-(3-(aminomethyl)phenyl)-1-methyl-1H-indole-6-carboxamido)phenyl)acetic acid] | < 1000
5 | NCc1cccc(-c2nc(C(=O)Nc3ccccc3CC(=O)O)c3ccc(CN4CCCC4)n3n2)c1 [Compound 46g, 2-(2-(2-(3-(aminomethyl)phenyl)-7-(pyrrolidin-1-ylmethyl)pyrrolo[2,1-f][1,2,4]triazine-4-carboxamido)phenyl)acetic acid] | 1000 to 10000
6 | NCc1ccc(F)c(-c2nc(C(=O)Nc3ccccc3CC(=O)O)c3cccn3n2)c1 [Compound 47f, 2-(2-(2-(5-(aminomethyl)-2-fluorophenyl)pyrrolo[2,1-f][1,2,4]triazine-4-carboxamido)phenyl)acetic acid] | 1000 to 10000
7 | NCc1cccc(-c2nc(C(=O)Nc3ccccc3CC(=O)O)nc3c2COC3)c1 [Compound 48h, 2-(2-(4-(3-(aminomethyl)phenyl)-5,7-dihydrofuro[3,4-d]pyrimidine-2-carboxamido)phenyl)acetic acid] | 1000 to 10000
8 | Cc1ccc(S(=O)(=O)n2ccc3c(-c4cccc(CN)c4)cc(COc4ccccc4CC(=O)O)nc32)cc1 [Compound 49f, 2-(2-((4-(3-(aminomethyl)phenyl)-1-tosyl-1H-pyrrolo[2,3-b]pyridin-6-yl)methoxy)phenyl)acetic acid] | < 1000
9 | Cn1ccc2c(-c3cccc(CN)c3)cc(COc3ccccc3CC(=O)O)cc21 [Compound 50e, 2-(2-((4-(3-(aminomethyl)phenyl)-1-methyl-1H-indol-6-yl)methoxy)phenyl)acetic acid] | < 1000
10 | Cc1ccc(CC(=O)O)c(NC(=O)c2nc(-c3cccc(CN)c3F)nn3cccc23)c1 [Compound 51c, 2-(2-(2-(3-(aminomethyl)-2-fluorophenyl)pyrrolo[2,1-f][1,2,4]triazine-4-carboxamido)-4-methylphenyl)acetic acid] | < 1000
11 | NCc1cccc(-c2cc(COc3ccccc3CC(=O)O)nc3[nH]ccc23)c1 [Compound 52a, 2-(2-((4-(3-(aminomethyl)phenyl)-1H-pyrrolo[2,3-b]pyridin-6-yl)methoxy)phenyl)acetic acid] | < 1000
12 | Cc1cccc(CC(=O)O)c1NC(=O)c1nc(-c2cccc(CN)c2)nn2cccc12 [Compound 53d, 2-(2-(2-(3-(aminomethyl)phenyl)pyrrolo[2,1-f][1,2,4]triazine-4-carboxamido)-3-methylphenyl)acetic acid] | < 1000
13 | Cc1cc(NC(=O)c2nc(-c3cccc(CN)c3F)nn3cccc23)n(CC(=O)O)n1 [Compound 54d, 2-(5-(2-(3-(aminomethyl)-2-fluorophenyl)pyrrolo[2,1-f][1,2,4]triazine-4-carboxamido)-3-methyl-1H-pyrazol-1-yl)acetic acid] | > 10000
14 | NCc1cccc(-c2cc(COc3ccccc3CC(=O)O)cc3cc(C4CC4)oc23)c1 [Compound 55g, 2-(2-((7-(3-(aminomethyl)phenyl)-2-cyclopropylbenzofuran-5-yl)methoxy)phenyl)acetic acid] | < 1000
15 | NCc1cccc(-c2cc(COc3ccccc3CC(=O)O)cc3ccoc23)c1F [Compound 56c, 2-(2-((7-(3-(aminomethyl)-2-fluorophenyl)benzofuran-5-yl)methoxy)phenyl)acetic acid] | < 1000
16 | Cc1ccc(S(=O)(=O)n2ccc3c(-c4cccc(CN)c4F)cc(COc4ccccc4CC(=O)O)cc32)cc1 [Compound 57c, 2-(2-((4-(3-(aminomethyl)-2-fluorophenyl)-1-tosyl-1H-indol-6-yl)methoxy)phenyl)acetic acid] | < 1000

Row | SMILES | IC50 [nM]
17 | NCc1cccc(-c2cc(COc3ccccc3CC(=O)O)cc3[nH]ccc23)c1F [Compound 58b, 2-(2-((4-(3-(aminomethyl)-2-fluorophenyl)-1H-indol-6-yl)methoxy)phenyl)acetic acid] | < 1000
18 | N[C@H](CO)c1cccc(-c2cc(COc3ccccc3CC(=O)O)cc3ccoc23)c1 [Compound 59d, (S)-2-(2-((7-(3-(1-amino-2-hydroxyethyl)phenyl)benzofuran-5-yl)methoxy)phenyl)acetic acid] | < 1000
19 | NCc1cc(-c2cc(COc3ccccc3CC(=O)O)cc3ccoc23)ccc1F [Compound 60c, 2-(2-((7-(3-(aminomethyl)-4-fluorophenyl)benzofuran-5-yl)methoxy)phenyl)acetic acid] | < 1000
20 | CN(C)c1nc2cc(C(=O)Nc3ccccc3CC(=O)O)cc(-c3cccc(CN)c3)c2o1 [Compound 61f, 2-(2-(7-(3-(aminomethyl)phenyl)-2-(dimethylamino)benzo[d]oxazole-5-carboxamido)phenyl)acetic acid] | 1000 to 10000
21 | NCc1cccc(-c2cc(C(=O)Nc3ccccc3CC(=O)O)cc3cc(C4CC4)oc23)c1 [Compound 62c, 2-(2-(7-(3-(aminomethyl)phenyl)-2-cyclopropylbenzofuran-5-carboxamido)phenyl)acetic acid] | < 1000
22 | Cc1ccc(CC(=O)O)c(NC(=O)c2nc(-c3cc(F)cc(CN)c3)nn3cccc23)c1 [Compound 63c, 2-(2-(2-(3-(aminomethyl)-5-fluorophenyl)pyrrolo[2,1-f][1,2,4]triazine-4-carboxamido)-4-methylphenyl)acetic acid] | < 1000
23 | NCc1cccc(-c2nc(C(=O)Nc3ccccc3CC(=O)O)c3ccccc3n2)c1 [Compound 64f, 2-(2-(2-(3-(aminomethyl)phenyl)quinazoline-4-carboxamido)phenyl)acetic acid] | < 1000
24 | C[C@@H](N)c1cccc(-c2cc(COc3ccccc3CC(=O)O)cc3ccoc23)c1F [Compound 65c, (R)-2-(2-((7-(3-(1-aminoethyl)-2-fluorophenyl)benzofuran-5-yl)methoxy)phenyl)acetic acid] | < 1000
25 | C[C@H](N)c1cccc(-c2cc(COc3ccccc3CC(=O)O)cc3ccoc23)c1F [Compound 66c, (S)-2-(2-((7-(3-(1-aminoethyl)-2-fluorophenyl)benzofuran-5-yl)methoxy)phenyl)acetic acid] | < 1000
26 | N[C@H](CO)c1cccc(-c2cc(COc3ccccc3CC(=O)O)cc3ccoc23)c1F [Compound 67c, (S)-2-(2-((7-(3-(1-amino-2-hydroxyethyl)-2-fluorophenyl)benzofuran-5-yl)methoxy)phenyl)acetic acid] | < 1000
27 | Cc1c(CN)cccc1-c1cc(COc2ccccc2CC(=O)O)cc2ccoc12 [Compound 68c, 2-(2-((7-(3-(aminomethyl)-2-methylphenyl)benzofuran-5-yl)methoxy)phenyl)acetic acid] | < 1000
28 | NCc1cc(F)cc(-c2cc(COc3ccccc3CC(=O)O)cc3[nH]ccc23)c1 [Compound 69e, 2-(2-((4-(3-(aminomethyl)-5-fluorophenyl)-1H-indol-6-yl)methoxy)phenyl)acetic acid] | < 1000
29 | NCc1cccc(-c2cc(COc3ccccc3CC(=O)O)cc3[nH]ccc23)c1 [Compound 70a, 2-(2-((4-(3-(aminomethyl)phenyl)-1H-indol-6-yl)methoxy)phenyl)acetic acid] | < 1000
30 | NCc1cccc(-c2cc(COc3ccccc3CC(=O)O)c3nccn3c2)c1 [Compound 71e, 2-(2-((6-(3-(aminomethyl)phenyl)imidazo[1,2-a]pyridin-8-yl)methoxy)phenyl)acetic acid] | < 1000
31 | C[C@H](N)c1cccc(-c2cc(COc3ccccc3CC(=O)O)cc3ccoc23)c1 [Compound 72c, (S)-2-(2-((7-(3-(1-aminoethyl)phenyl)benzofuran-5-yl)methoxy)phenyl)acetic acid] | < 1000
